The subject of one experiment is A549. Put plainly: Proliferation assay in A549. Type of experiment: cell-based. Conditions: Homo sapiens, A549, Lung. How it is done:
(§1) The compounds were dissolved in 100% DMSO to make 10 mM stock solutions. HER2+BT474 breast carcinoma cells were cultured in DMEM/F12 media, supplemented with 10% FBS. Log-phase growing BT474 cells were seeded in 96 well plates at 1.5×10E4 per well. At this cell density, BT474 is expected to reach confluency about 70-80% in 3 days. Different dilutions of compounds or vehicle in 200 μl (concentration range 0.004-10 μM) were added to the cells and incubated for 72 hours. Upon completion of the incubation, media were gently removed by suction and 100 μl of ATPlite solution (Perkin Elmer) was added in each well. Viable cells were measured by detecting luminescence generated from reaction of ATPlite solution and ATP in the cells using a 96-well microplate luminescence reader. Relative luminescence light unit is correlated to the amount of ATP in viable cells. The assays were performed in duplicates. IC50 was calculated using XLfit. The IC50 shown in Table 4 below is the average IC50 from three independent experiments.
(§2) Additional proliferation assays were performed for certain exemplified compounds using the methods similar to the one described above in multiple cancer cell lines.

For a further experiment, the system named is NCI-H2228. Put plainly: Proliferation assay in NCI-H2228. The following applies: Homo sapiens, NCI-H2228, Lung (EML4-ALK+). Type of experiment: cell-based. How it is done:
as §1, §2

The next experiment has as its system SKOV-3. Briefly: Proliferation assay in SKOV-3. Format: cell-based. The following applies: Homo sapiens, SK-OV-3, SKOV-3, Ovarian (Her2+). The method, then:
as §1, §2

For the next experiment, the system named is H23. Briefly: Proliferation assay in H23. Conditions: Homo sapiens, NCI-H23, H23, Lung. Format: cell-based. How it is done: as §1, §2
The next experiment has as its system HCC1569. Put plainly: Proliferation assay in HCC1569. Format: cell-based. The following applies: Homo sapiens, HCC1569, Breast (Her2+; Her2i res). The method, then:
as §1, §2

The subject of the next experiment is H460. Briefly: Proliferation assay in H460. Format: cell-based. The following applies: Homo sapiens, NCI-H460, H460, Lung. How it is done:
as §1, §2

The next experiment concerns H1975. Put plainly: Proliferation assay in H1975. Format: cell-based. Conditions: Homo sapiens, NCI-H1975, H1975, Lung (EGFR mut). The method, then: as §1, §2
The next experiment deals with A498. Briefly: Proliferation assay in A498. Format: cell-based. The following applies: Homo sapiens, A498, Renal (VHL mut). How it is done: as §1, §2
The next experiment deals with N87. Briefly: Proliferation assay in N87. Type of experiment: cell-based. Conditions: N87, Gastric (Her2+). How it is done: as §1, §2
In experiment [1] the test system is HER2+BT474 breast carcinoma cells. Briefly: Proliferation assay in BT474 (ATPlite). Type of experiment: cell-based. The following applies: Homo sapiens, BT-474, 72 hours, average of three independent experiments. The method, then:
as §1

Experiment [2] relates to HSP90 client protein in SKBR3 cell lines. Conditions: earlier work of the inventors; cited from earlier work.
A further experiment relates to BT474 breast tumor cells. Conditions: xenografts bearing BT474 breast tumor cells; earlier work of the inventors; cited from earlier work.
A further experiment deals with HT29. Put plainly: Proliferation assay in HT29. Format: cell-based. Conditions: Homo sapiens, HT-29, HT29, Colon. The method, then: as §1, §2
The test system of another experiment is RPM18226. Briefly: Proliferation assay in RPM18226. Type of experiment: cell-based. Conditions: RPM18226, Multiple myeloma. The method, then: as §1, §2
In the next experiment the test system is PC3. Put plainly: Proliferation assay in PC3. Type of experiment: cell-based. Conditions: Homo sapiens, PC-3, PC3, Prostate. The method, then:
as §1, §2

The next experiment relates to HCT116. Put plainly: Proliferation assay in HCT116. Format: cell-based. The following applies: Homo sapiens, HCT-116, HCT116, Colon. How it is done:
as §1, §2

A further experiment has as its system HCC827. Briefly: Proliferation assay in HCC827. Format: cell-based. Conditions: Homo sapiens, HCC827, Lung (EGFR mut). The method, then:
as §1, §2

In the next experiment the test system is Her-2 in SkBr3 cells. Briefly: Her-2 depletion in SkBr3 cells (pharmacodynamic marker of cellular efficacy). Format: cell-based. The following applies: Homo sapiens, SK-BR-3; SkBr3 cells treated with the inhibitor overnight; read-out: PD (μM), pharmacodynamic EC50, Her-2 depletion. The method, then:
FIG. 2. Cellular efficacy of pochoximes A1B5C1D1 (IC50). Depletion of Her-2 in SkBr3 cells were treated treated with the inhibitor for 18 h. […]

Another experiment deals with T1, human HSP90α (Homo sapiens, UniProt P07900).
T1 construct: purchased Stressgen SPP-776F
Briefly: biochemical. Format: binding.

Bounds are passed on as bounds.

Results on 20 molecules are retold here after patent publication US20150374680A1, “POCHOXIME CONJUGATES USEFUL FOR THE TREATMENT OF HSP90 RELATED PATHOLOGIES” (UNIVERSITE DE STRASBOURG, priority 2010, published 2015).

On to `C[C@@H]1C/C=C/[C@@H](O)C/C=C/C(=N\OCC(=O)N2CCCCC2)Cc2cc(O)cc(O)c2C(=O)O1` [As-10a(6-S)-Z], for which the IC50 in the experiment with A549 came out at 22 nM; in the experiment on NCI-H2228, 77 nM; in the experiment with SKOV-3, 25 nM; in the experiment on H23, 28 nM; in the experiment with HCC1569, 100 nM; with H460, 15 nM. Besides, the IC50 was found to be 35 nM in the experiment on H1975, 24 nM with A498, 11 nM in the experiment on N87 and 0.026 µM in experiment [1].

Turning to `O=C1OCC/C=C/CC/C=C/C(=N/OCC(=O)N2CCCCC2)Cc2c(Cl)c(O)cc(O)c21` [pochoxime A], the “Concentration inducing client protein degradation” value in [2] is “low nM”. The “Effect on tumor in xenografts” value in the experiment on BT474 breast tumor cells is given as “tumor regression”.

Turning to pochoxime B, the “Concentration inducing client protein degradation” value in experiment [2] was “low nM”.

Take `CC(=O)N[C@H]1/C=C/C[C@@H](C)OC(=O)c2c(O)cc(O)cc2CC(=N/OCC(=O)N2CCCCC2)/C=C/C1` [Compound 14Z]: in [1], inhibition was half-maximal at 0.27 µM (IC50).

Molecule `C[C@@H]1C/C=C/[C@@H](NC(=O)CS[C@@H]2OC(CO)[C@@H](O)C(O)C2O)C/C=C/C(=N/OCC(=O)N2CCCCC2)Cc2cc(O)cc(O)c2C(=O)O1` (stereo partly shown) [Compound 5E] displayed an IC50 in experiment [1] of 7.84 µM.

In experiment [1], `C[C@@H]1C/C=C/[C@H](NC(=O)CS[C@@H]2OC(CO)[C@@H](O)C(O)C2O)C/C=C/C(=N/OCC(=O)N2CCCCC2)Cc2cc(O)cc(O)c2C(=O)O1` (stereo partly shown) [Compound 11E] came in with an IC50 of 4.76 µM.

For the molecule `C[C@@H]1C/C=C/[C@@H](N)C/C=C/C(=N/OCC(=O)N2CCCCC2)Cc2cc(O)cc(O)c2C(=O)O1` [As-13(6S)-E], the IC50 in the experiment on HT29 was 33 nM; in the experiment with NCI-H2228, 87 nM; in the experiment on SKOV-3, 33 nM; with RPM18226, 46 nM; in the experiment on H23, 41 nM; in the experiment with HCC1569, 140 nM. For the same molecule, the IC50 was determined as 33 nM with H460; 37 nM with H1975; 180 nM in the experiment on A498; 44 nM with PC3; 7 nM with N87; 76 nM with HCT116. In the experiment on HCC827, this molecule returned an IC50 of 79 nM.

Consider `C[C@@H]1C/C=C/[C@@H](N)C/C=C/C(=N\OCC(=O)N2CCCCC2)Cc2cc(O)cc(O)c2C(=O)O1` [As-13(6S)-Z], for which the IC50 amounted to 92 nM with HT29; 139 nM in the experiment with NCI-H2228; 72 nM in the experiment with RPM18226; 175 nM in the experiment with HCC1569; 51 nM with H1975; 166 nM with A498. Further, the IC50 amounted to 82 nM in the experiment with PC3, 12 nM with N87, 101 nM in the experiment on HCT116 and 105 nM in the experiment with HCC827.

Take `C[C@@H]1C/C=C/[C@@H](O)C/C=C/C(=N/OCC(=O)N2CCCCC2)Cc2c(Cl)c(O)cc(O)c2C(=O)O1` [As-10b(6-S)-E]: the IC50 amounted to 126 nM with A549; 281 nM in the experiment on NCI-H2228; 45 nM with SKOV-3; 36 nM with H23; 187 nM in the experiment on HCC1569; 33 nM in the experiment on H1975. The IC50 with A498 came to 37 nM; in the experiment with N87, 13 nM; in experiment [1], 0.027 µM.

In experiment [1], `C[C@@H]1C/C=C/[C@@H](N)C/C=C/C(=N\OCC(=O)N2CCCCC2)Cc2cc(O)cc(O)c2C(=O)O1` [Compound 12Z] yielded an IC50 of 0.038 µM.

Take `CC(=O)N[C@H]1/C=C/C[C@@H](C)OC(=O)c2c(O)cc(O)cc2CC(=N\OCC(=O)N2CCCCC2)/C=C/C1` [Compound 14E]: 0.223 µM corresponded to half-maximal inhibition in [1] (IC50).

As to `C[C@@H]1C/C=C/[C@@H](O)C/C=C/C(=N\OCC(=O)N2CCCCC2)Cc2c(Cl)c(O)cc(O)c2C(=O)O1` [As-10b(6-S)-Z], the IC50 in [1] came out at 0.824 µM. Against the preceding molecule, the IC50 is about 3.7-fold higher.

Take `C[C@@H]1C/C=C/[C@H](N)C/C=C/C(=NOCC(=O)N2CCCCC2)Cc2cc(O)cc(O)c2C(=O)O1` [Compound 13]: the IC50 in experiment [1] was found to be 0.097 µM.

Regarding pochoxime C, the “Concentration inducing client protein degradation” value in experiment [2] is recorded as “low nM”.

On to `C[C@@H]1C/C=C/[C@@H](N)C/C=C/C(=N/OCC(=O)N2CCCCC2)Cc2cc(O)cc(O)c2C(=O)O1` [Compound 12E], for which the IC50 in [1] turned out to be 0.03 µM.

On to `C[C@@H]1C/C=C/[C@@H](O)C/C=C/C(=N/OCC(=O)N2CCCCC2)Cc2cc(O)cc(O)c2C(=O)O1` [As-10a(6-S)-E], for which the IC50 in the experiment on A549 was 90 nM; in the experiment on NCI-H2228, 241 nM; with SKOV-3, 67 nM; in the experiment with H23, 88 nM; in the experiment with HCC1569, 377 nM; with H460, 45 nM. Moreover, the half-maximal inhibitory concentration (IC50) in the experiment on H1975 was 73 nM; in the experiment on A498, 99 nM; in the experiment with N87, 73 nM; in [1], 0.058 µM.

The molecule `C[C@@H]1C/C=C/[C@H](NC(=O)CS[C@@H]2OC(CO)[C@@H](O)C(O)C2O)C/C=C/C(=N\OCC(=O)N2CCCCC2)Cc2cc(O)cc(O)c2C(=O)O1` (stereo partly shown) [Compound 11Z] yielded a half-inhibitory concentration (IC50) in experiment [1] of more than 10 µM.

`C[C@@H]1C/C=C/[C@@H](NC(=O)CS[C@@H]2OC(CO)[C@@H](O)C(O)C2O)C/C=C/C(=N\OCC(=O)N2CCCCC2)Cc2cc(O)cc(O)c2C(=O)O1` (stereo partly shown) [Compound 5Z]: the IC50 in experiment [1] is more than 10 µM.

Regarding `CCCC1CC=CCCC=CC(=NOCC(=O)N2CCCCC2)Cc2c(Cl)c(O)cc(O)c2C(=O)O1` (stereo not shown) [Compound A2B1C2D1], the EC50 with Her-2 in SkBr3 cells is not above 5 µM; at human HSP90α it was 96 nM.

As to `O=C1OCCC=CCCC=CC(=NOCC(=O)N2CC=CCC2)Cc2cc(O)cc(O)c21` [Compound A1B1C4D9], the values for the EC50 with Her-2 in SkBr3 cells and on human HSP90α were not above 0.5 µM and 22 nM, respectively.
